Assay [1] deals with MCF-7 mammary tumour cells. Briefly: Anti-proliferative activity on the growth of MCF-7 mammary tumour cells (DNA dosage). The class given is cell-based. The note with it: MCF-7 cells in DSE medium with 10^-10 M estradiol, D7 to D9, DNA by DABA fluorimetry, read-out: IC 50: concentration which inhibits the growth of MCF7 cells by 50%. The procedure:
2—Anti-proliferative Activity of the Products of the Invention on the Growth of MCF-7 Mammary Tumour Cells
MCF-7 lines are kept in culture in FCS medium (according to 1) at 37° C. in a humid atmosphere containing 5% CO2. Subconfluent cells are collected by trypsination (0.05% trypsin, 0.02% EDTA) then rinsed by gentle centrifugation. A sample of cells in suspension is counted with a Malassez cell.
The cells, resuspended in DSE medium (according to 1), are seeded at the rate of 50,000 cells per well in multiwell plates (24 wells of 2.5 cm^2). Twenty-four hours after seeding (D0), the product to be tested is added to the medium in ethanolic solution (final concentration of ethanol: 0.1%), at a concentration of 10^−11 to 10^−6M, the control wells receiving the same ethanol concentration. The media are renewed every 48 hours. At the end of the experiment (D7 to D9), the medium is extracted and the cells are immediately fixed with 150 microlitres of methanol in order to dose the DNA.
The anti-proliferative activity of the products is evaluated by their capacity to inhibit the increase of DNA
The DNA is dosed by a fluorimetric method using DABA (3,5 diaminobenzoic acid) (according to 2): 150 microlitres of DABA are added to each well; the plates are then incubated for 45 mn at 56° C., then 2 ml of 1N HCl is added. The fluorescence is measured using a fluorimeter (excitation wavelength: 408 nm, emission wavelength: 510 nm).
The quantity of DNA per well is evaluated relative to a reference scale obtained by treating a calf thymus DNA standard under the same conditions.
The concentration in nM which inhibits the growth of MCF7 cells by 50% (IC50) was determined in the manner indicated above:
(1) A Base Medium is Prepared as Follows
The FCS medium is composed of 95% of base medium and 5% of foetal calf serum.
The DSE medium is composed of 95% of base medium, 5% of steroid-free foetal calf serum on carbon-dextran and 10^−10 M of estradiol.
(2) Puzas and Goodman, Analytical Biochemistry, Vol 86, p. 50, 1978

Assay [2] addresses T1, Estrogen receptor of a mouse uterus (Mus musculus, UniProt P19785).
T1 construct: The homogenate is then ultracentrifuged (209,000 g×30 mn.) at 0° C; from tissue; host or cells: uterus of 18 to 21-day old immature female mice, cytosol (ultracentrifugation supernatant of the homogenate)
T1 sequence (P19785 1-599): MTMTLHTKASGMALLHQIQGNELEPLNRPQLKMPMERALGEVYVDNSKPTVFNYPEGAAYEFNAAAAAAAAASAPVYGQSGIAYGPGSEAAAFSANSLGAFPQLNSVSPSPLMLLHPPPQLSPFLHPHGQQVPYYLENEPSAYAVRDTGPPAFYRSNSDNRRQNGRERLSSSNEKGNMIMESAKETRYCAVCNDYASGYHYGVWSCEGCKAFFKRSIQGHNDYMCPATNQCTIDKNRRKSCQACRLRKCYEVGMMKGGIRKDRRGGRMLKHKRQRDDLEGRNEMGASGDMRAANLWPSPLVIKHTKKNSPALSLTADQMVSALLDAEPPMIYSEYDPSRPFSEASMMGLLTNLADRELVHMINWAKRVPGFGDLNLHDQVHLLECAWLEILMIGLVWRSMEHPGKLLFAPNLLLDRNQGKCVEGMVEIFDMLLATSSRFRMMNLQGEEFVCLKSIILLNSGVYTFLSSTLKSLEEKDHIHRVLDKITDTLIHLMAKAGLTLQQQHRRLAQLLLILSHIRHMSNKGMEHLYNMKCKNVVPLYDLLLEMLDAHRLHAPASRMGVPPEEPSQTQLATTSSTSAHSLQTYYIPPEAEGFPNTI
Briefly: Activity on the estrogen receptor of a mouse uterus (relative bond affinity, displacement of tritiated estradiol). The note with it: mouse uterus cytosol, RBA = 100 (CH)/(CX) relative to unlabelled estradiol. The format is binding. The procedure: 1—Study of the Activity of the Products of the Invention on the Estrogen Receptor of a Mouse Uterus
18 to 21-day old impuberal female mice are sacrificed, the uteri are removed, then homogenized at 0° C., using a Potter teflon-glass in a TS buffered solution (10 mM Tris, 0.25 M saccharose, HCl pH 7.4) (1 g of tissue per 25 ml of TS). The homogenate is then ultracentrifuged (209,000 g×30 mn.) at 0° C. The supernatant aliquots thus obtained are incubated at 25° C. for 5 hours, with a constant concentration (T) of tritiated estradiol in the presence of increasing concentrations either of unlabelled estradiol (0-1000×10^−9M), or of unlabelled product to be tested (1 to 25000×10^−9M). The concentration of bound tritiated estradiol (B) is then measured in each incubate by the carbon-dextran adsorption technique.
Calculation of the Relative Bond Affinity (RBA)
The following two curves are drawn: the percentage of bound tritiated hormone B/BO as a function of the logarithm of the concentration of unlabelled reference hormone or as a function of the logarothm of the concentration of unlabelled test product.
The straight line of the following equation:
BO=% of binding of the bound tritiated hormone in the absence of any unlabelled product.
B=% of the bound tritiated hormone in the presence of a concentration X of unlabelled product.
B min=% of bound tritiated hormone in the presence of a large excess of unlabelled reference hormone (500 nM).
The intersections of the straight line I50 and the curves allow the evaluation of the concentrations of unlabelled reference hormone (CH) and of the unlabelled test product (CX) which inhibit by 50% the specific binding of the tritiated hormone on the receptor.
The relative bond affinity (RBA) of the test product is calculated by the equation: […]

SMILES strings stand for the structures. Where two headings read alike, the source gives them in different places.

Consider `C[C@]12C[C@H](CCCCCCCCSCc3ccccn3)[C@@H]3c4ccc(O)cc4CC[C@H]3[C@@H]1CC[C@@H]2O` [Example 1, 11beta-[8-[(2-pyridinylmethyl)thio]octyl]estra-1,3,5(10)-triene-3,17beta-diol], for which, in assay [1] (Homo sapiens, MCF7), the IC50 was 24 pM.

For the compound `C[C@]12C[C@H](c3ccc(OCCCCC[S+]([O-])Cc4ccccn4)cc3)[C@@H]3c4ccc(O)cc4CC[C@H]3[C@@H]1CC[C@@H]2O` (stereo partly drawn) [Example 5, 11beta-[4-[5-[(2-pyridinylmethyl)sulphinyl]-pentyloxy]phenyl]estra-1,3,5(10)-triene-3,17beta-diol], the “Relative bond affinity (RBA), Estrogen receptor incubation 5H at 25° C.” value (shortened to “Relative bond affinity (RBA)”) in assay [2] came out at 21.2. In assay [1] (Homo sapiens, MCF7), the IC50 was found to be 12 pM.

As to `C[C@]12C[C@H](c3ccc(OCCCCC[S+]([O-])Cc4cccnc4)cc3)[C@@H]3c4ccc(O)cc4CC[C@H]3[C@@H]1CC[C@@H]2O` (stereo partly drawn) [Example 7, 11beta-[4-[5-[(3-pyridinylmethyl)sulphinyl]pentyloxy]phenyl]estra-1,3,5(10)-triene-3,17beta-diol], the “Relative bond affinity (RBA)” value in assay [2] amounted to 26.3. Further, the IC50 in assay [1] (Homo sapiens, MCF7) was 26 pM.

With `C[C@]12C[C@H](c3ccc(OCCCCCS(=O)(=O)CCCC(F)(F)C(F)(F)F)cc3)[C@@H]3c4ccc(O)cc4CC[C@H]3[C@@H]1CC[C@@H]2O` [Example 32, 11beta-[4-[5-[(4,4,5,5,5-pentafluoropentyl)sulphonyl]pentyloxy]phenyl]estra-1,3,5(10)-triene-3,17beta-diol], the “Relative bond affinity (RBA)” value in assay [2] worked out at 56. In addition, the IC50 in assay [1] (Homo sapiens, MCF7) came to 100 pM.

On to `CCCCCS(=O)(=O)C(C)CCCOc1ccc([C@H]2C[C@]3(C)[C@@H](O)CC[C@H]3[C@@H]3CCc4cc(O)ccc4[C@H]32)cc1` (stereo partly drawn) [Example 60, 11beta-[4-[4-(pentylsulphonyl)pentyloxy]phenyl]estra-1,3,5(10)-triene-3,17beta-diol], for which the “Relative bond affinity (RBA)” value in assay [2] turned out to be 18.2. In assay [1] (Homo sapiens, MCF7), the IC50 is 250 pM.

With `C[C@]1(O)CC[C@H]2[C@@H]3CCc4cc(O)ccc4[C@H]3[C@@H](c3ccc(OCCCCCS(=O)(=O)CCCC(F)(F)C(F)(F)F)cc3)C[C@@]21C` [Example 78, 11beta-[4-[5-[(4,4,5,5,5-pentafluoropentyl)sulphonyl]pentyloxy]phenyl]17alpha-methyl estra-1,3,5(10)-triene-3,17beta-diol], the “Relative bond affinity (RBA)” value in assay [2] is 21.8. Also, in assay [1], the IC50 was found to be 30 pM.

Source of the values: patent publication US6596885B2, “19-Nor steroids having a thiocarbonated chain in position 11beta, their preparation process and the intermediates of this process, their use as medicaments and compositions” (Aventis Pharma S.A., priority 1991, dated 2003).
